Patent US6372727B1, “Metalloporphyrin treatment of neurologic disease” (UAB Research Foundation, priority 1999, dated 2002)
Several values for one entry are separate records, joined by “and”; a condition that tells them apart may be missing. Equal entries are not always repeated.

Key:
[1] = Ascorbate oxidation by MPs monitored at 266 nm; format: biochemical; settings: MP 10 μM, 50 μM ascorbate, 0.1 M potassium phosphate pH 7.4, ± standard error, n=3
Description: (§1) In order to test the hypothesis that Mn(II)- or Fe(II)-porphyrins would be capable of carrying out two-electron reductions of peroxynitrite and thereby decreasing rather than increasing its reactivity, attempts were made to pre-reduce these transition metal-containing MPs prior to addition of peroxynitrite.
Table V. Ascorbate oxidation by MPs. MPs (10 μM) were added to stirred cuvettes containing 0.1 M potassium phosphate, pH 7.4 and 50 μM ascorbate. Ascorbate oxidation was monitored at 266 nm (ηm=17,700 M^−1cm^−1). Oxidation rates (±standard errors) were determined by fitting the initial linear portion of each curve and averaging the rates (n=3).

[2] = MP-catalyzed peroxynitrite decomposition monitored at 302 nm; format: biochemical; settings: 100 μM peroxynitrite
Description: Peroxynitrite (100 μM) was added to rapidly stirred cuvettes at 37° C. containing the indicated concentrations of MPs in 0.1 M potassium phosphate, pH 7.4. Ascorbate was added to 150 μM where indicated. Peroxynitrite decomposition was monitored at 302 nm using a Hewlett-Packard diode-array spectrophotometer. Apparent rates (kapparents^−1, average of n=3) were plotted versus MP concentration to determine rate constants in M^−1s^−1.
Reactions contained the indicated concentration of FeTCPPin 1.4 ml of 0.1 M potassium phosphate, pH 7.4 in the absence or presence to 150 μM ascorbic acid. Peroxynitrite (100 μM) was added to rapidly stirred cuvettes at 37° C. and the decay of peroxynitrite was monitored continuously at 302 nm. Decay data were fitted to the equation describing first order decay to obtain apparent decay rates (kapparent sec^−1). Apparent decay rates as a function of FeTCPP were fitted by linear regression and the rate constant was obtained slope of the line.
Peroxynitrite (100 μM) decomposition was determined at 302 nm using a Hewlett-Packard diode-array spectrophotometer fitted with a temperature-controlled cuvette chamber and a water-driven cuvette stirrer. Bolus additions of peroxynitrite were made to vigorously stirred cuvettes containing varying concentrations of MPs (see Table III) while data were collected at a rate of ten points/sec. […] Each reaction was repeated three times and only the first additions of peroxynitrite were averaged. Data were exported for fitting and plotting. Apparent rates of peroxynitrite decomposition were plotted as a function of metalloporphyrin concentration (as shown in FIG. 5) to determine concentration-independent rate constants at 37° C.
Rates of peroxynitrite (100 μM) decomposition were determined at different MP concentrations. Ascorbate was added to 150 μM where indicated. […] Apparent rate constants were plotted versus MP concentration (as in FIG. 5A,B) to determine true rate constants in M^−1s^−1±standard error.

[3] = Oxidation of metalloporphyrins by peroxynitrite, stopped-flow spectroscopy; format: biochemical; settings: 37° C., 0.1 M potassium phosphate pH 7.4, pseudo-first order, ± standard error
Description: Peroxynitrite (in 10 mM NaOH) was rapidly mixed with the indicated MPs in 0.1 M potassium phosphate, pH 7.4 at 37° C. using a stopped-flow apparatus as described in Methods. […] A final concentration of 40 μM peroxynitrite was added to 8 μM of each of the MPs MnTBAP, MnPPIX, and FePPIX. […] INSET: Apparent rate constants for oxidation of 8 μM MnTBAP are plotted as a function of peroxynitrite concentration to illustrate how the rate constants listed in Table III were determined.
Rates of metal loporphyrin oxidation by peroxynitrite were determined using a Bio Sequential SX-18MV Applied Photophysics stopped-flow spectrofluorometer. Solutions of metalloporphyrins in 0.1 M potassium phosphate buffer, pH 7.4 were placed in one syringe and solutions of peroxynitrite in 10 mM NaOH were placed in a second syringe, both of which were submerged in a water bath at 37° C. Changes in metalloporphyrin absorbance as a function of time were recorded following triggering of syringe firing and solution mixing (instrument dead time=2 msec); a total of 1000 data points were collected over intervals ranging from 50 msec to 3 sec. […] Because the absorbance changes associated with loss of +3 forms were greater, rates of metalloporphyrin oxidation were determined by monitoring the disappearance of Mn(III)TMPyP at 462 nm, Mn(III)TBAP at 468 nm, Mn(III)PPIX at 466 nm, and Fe(III)PPIX at 464 nm. Absorbance changes as a function of time were fitted to the equation describing a first order process. The concentration of peroxynitrite was varied from five-fold to forty-fold greater than the fixed metalloporphyrin concentration in order to obtained pseudo first-order conditions (see Table III). Each concentration was injected 10 times and data were averaged automatically prior to fitting.
Rate constants for stoichiometric metalloporphyrin oxidation by peroxynitrite at 37° C. were determined under pseudo-first order reaction conditions by varying the amount of peroxynitrite added to a fixed concentration of metalloporphyrin (Table III).
In Table III, the rate of peroxynitrite-mediated oxidation of metalloporphyrins at 37° C. was determined. Apparent rate constants were determined by stopped-flow spectroscopy and plotted versus the peroxynitrite concentration (as shown for MnTBAP in FIG. 4 inset) to determine the bimolecular rate constant in M^−1s^−1±standard error. FePPIX was monitored at 387 nm, MnPPIX at 464 nm, and MnTBAP at 470 nm.

[4] = MP-catalyzed nitration of HPA: effect of pH, reductants and serum; format: biochemical; settings: for enhancement of nitration yield at pH 9.1 / effect of ascorbate on nitration enhancement: 8 mM HPA, 10 μM MP; for enhancement of nitration yield at pH 9.1: 0.1 M sodium borate pH 9.1, versus non-catalyzed; for effect of ascorbate and GSH on nitration enhancement: concentrations which eliminated non-catalyzed nitration; for effect of serum on nitration enhancement: fresh human serum 1:10 added prior to peroxynitrite; for effect of ascorbate on nitration enhancement: ascorbate 150 μM, pH 7.4
Description: Single additions of 100 μM peroxynitrite were made to reactions containing ascorbate or GSH. Three sequential additions of 100 μM peroxynitrite were made to all other reactions.
(§2) This level of bicarbonate results in rapid saturation of the solution with carbon dioxide (˜1 mM). Solutions were placed into a rapidly stirred cuvette and nine bolus additions (50 μM×3, 100 μM×3, and 200 μM×3) of peroxynitrite were made sequentially while the absorbance was monitored. Increasing amounts of peroxynitrite were added in a sequential manner in order to determine whether nitration efficiency varied with concentration and to determine whether nitration catalysis was maintained with multiple additions (see FIG. 6 inset). Nitration efficiency was defined as the amount of nitropeptide formed per amount of peroxynitrite added and was calculated for each peroxynitrite addition; the values shown are the average of all nine peroxynitrite additions. The absorbance changes associated with nitrotyrosine peptide production were monitored simultaneously at 380, 430, and 460 nm. The extinction coefficients for nitrated GYA at pH 7.4 are 4,400 M^−1cm^−1 at 430 nm and 2,200 M^−1cm^−1 at both 380 and 460 nm. […] Wavelengths used to quantify nitrotyrosine production were chosen to minimize interference by the particular metalloporphyrin used. Experiments using HPA as a nitration target (FIG. 7) contained 8 mM HPA in either 0.1 M potassium phosphate, pH 7.4 or 0.1 M sodium borate, pH 9.1.

[5] = Peroxynitrite-mediated nitration of GYA peptide; format: biochemical; settings: 2 mM GYA, 10 μM MP, pH 7.4
Description: Nitration efficiency, defined as the moles of nitrated GYA peptide formed per mole of peroxynitrite added, was determined at a fixed concentration of 10 μM MP or Cu,Zn SOD subunit, or 1 mM CO2 as described below. Increasing amounts of peroxynitrite were added in a sequential manner in order to determine whether nitration efficiency varied with concentration and to determine whether nitration catalysis was maintained with multiple additions (see INSET). Nitration efficiency was calculated for each peroxynitrite addition; the values shown are the average of all nine peroxynitrite additions. Absorbance changes were monitored simultaneously at 380, 430, and 460 nm.
as §2, with “For nitration of GYA peptide (see FIG. 6), reaction solutions contained 2 mM GYA and 10 μM of the indicated MP in 1.4 ml of 0.1 M potassium phosphate, pH 7.4 at 37° C. Comparisons with two previously characterized nitration catalysts, human Cu,Zn superoxide dismutase (hCu,Zn SOD) and carbon dioxide, were made using 10 μM of SOD subunit and 25 mM potassium bicarbonate, respectively, which was pH-adjusted to 7.4. This” for “This”
The relative abilities of several MPs to enhance nitration of the tripeptide GYA was compared using 10 μM MP and sequential bolus additions of 50 μM (×3), 100 μM (×3), and 200 μM (×3)peroxynitrite (FIG. 6, inset).

[6] = MP 5 μM, GSH 2 mM, 0.1 M potassium phosphate pH 7.4, 37° C.
Description: Aliquots (14 μl) were removed at 10 min intervals and added to 1.4 of 0.1 M potassium phosphate, pH 7.4 containing 0.2 mM dithionitrobenzoic acid (Ellman's Reagent) and 50 μM EDTA. GSH concentration was determined by the change in 430 nm absorbance. The extinction coefficient at 430 nm was determined to be 13,900 M^−1cm^−1 using a fresh GSH solution standardized by weight.
as §1

Row | oxidation by H2O2 (0.5 mM H2O2, 20 min) | Compound | Rate of Ascorbate Oxidation [1] | Rate Constants for MP-Catalyzed Decomposition of Peroxynitrite (pH 7.4, 37° C.) ([2]; absence of added reductants) | Rate Constants for Oxidation of MPs by Peroxynitrite [3] | enhancement of nitration yield at pH 9.1 [4] | effect of ascorbate and GSH on nitration enhancement [4] | effect of serum on nitration enhancement [4] | effect on nitration [5] | rate of GSH oxidation [6] | effect of HOCl on the MP (50 μM HOCl) | ascorbate concentration giving complete inhibition of nitration enhancement ([4]; dose-dependent, not shown) | effect of ascorbate on nitration enhancement [4] | Rate Constants for MP-Catalyzed Decomposition of Peroxynitrite (pH 7.4, 37° C.) ([2]; plus ascorbate 150 μM)
1 |  | C=CC1=C(C)c2cc3[n-]c(cc4nc(cc5[n-]c(cc1n2)c(C)c5CCC(=O)O)C(CCC(=O)O)=C4C)c(C)c3C=C.[Fe] [FePPIX, Iron (III) protoporphyrin IX dichloride] | 1.33 ± 0.07 µM/min | 3.7×10^5 M^−1s^−1 and 3.7 × 10^5 ± 0.2 M^−1s^−1 | 1e+06 M⁻¹ s⁻¹ | 5.7 fold | much less inhibitory effect | largely eliminated the nitration enhancement |  |  |  |  |  | 
2 |  | C[n+]1ccc(-c2c3nc(c(-c4cc[n+](C)cc4)c4ccc([n-]4)c(-c4cc[n+](C)cc4)c4nc(c(-c5cc[n+](C)cc5)c5ccc2[n-]5)C=C4)C=C3)cc1.Cc1ccc(S(=O)(=O)[O-])cc1.Cc1ccc(S(=O)(=O)[O-])cc1.Cc1ccc(S(=O)(=O)[O-])cc1.Cc1ccc(S(=O)(=O)[O-])cc1.[Cu+2] [CuTMPyP, Copper (II) meso-tetra-(N-methyl-4-pyridyl)-porphine tetra tosylate] | 6.50 ± 0.32 µM/min |  |  |  |  |  | small but reproducible inhibitory effect | 29 µM/min |  |  |  | 
3 | did not appear to oxidize | C[n+]1ccc(-c2c3nc(c(-c4cc[n+](C)cc4)c4ccc([n-]4)c(-c4cc[n+](C)cc4)c4nc(c(-c5cc[n+](C)cc5)c5ccc2[n-]5)C=C4)C=C3)cc1.[Cl-].[Cl-].[Cl-].[Cl-].[Cl-].[Fe+3] [FeTMPyP, Iron (III) meso-tetra-(N-methyl-4-pyridyl)-porphine chloride] | 146.20 ± 7.2 µM/min | 7.9 × 10^5 ± 0.9 M^−1s^−1 |  | 10.7 fold | much less inhibitory effect | much less effect |  | 22 µM/min | appeared to destroy the metal-pyrrole center | 1.5 mM |  | 
4 |  | C=CC1=C(C)c2cc3[n-]c(cc4[n-]c(cc5nc(cc1n2)C(C)=C5C=C)c(C)c4CCC(=O)[O-])c(CCC(=O)[O-])c3C.[H+].[H+].[Mn+2] [MnPPIX, Manganese (III) protoporphyrin IX dichloride] | 0.96 ± 0.05 µM/min |  | 99000 M⁻¹ s⁻¹ | did not enhance nitration yields | largely prevented the enhancement of nitration | largely eliminated the nitration enhancement |  |  |  |  | pronounced inhibitory effect | 
5 |  | O=C(O)c1ccc(-c2c3nc(c(-c4ccc(C(=O)O)cc4)c4ccc([n-]4)c(-c4ccc(C(=O)O)cc4)c4nc(c(-c5ccc(C(=O)O)cc5)c5ccc2[n-]5)C=C4)C=C3)cc1.[Mn+3] [MnTBAP, Manganese (III) tetra-(4-benzoic acid)-porphyrin] |  | no acceleration | 25000 M⁻¹ s⁻¹ | did not enhance nitration yields | largely prevented the enhancement of nitration | largely eliminated the nitration enhancement |  |  |  |  | pronounced inhibitory effect | 3.3 × 10^4 ± 0.4 M^−1s^−1
